# Data reported in article PMC8934631, “Transcriptomic and genomic studies classify NKL54 as a histone deacetylase inhibitor with indirect influence on MEF2-dependent transcription” (Nucleic Acids Research, 2022).
# Assays:
# HDAC4 = HDAC4 (Homo sapiens, UniProt P56524); assay: fluorogenic deacetylase assay, trypsin-coupled AMC release; format: biochemical
# HDAC1 = biological target: T1, HDAC1 (Homo sapiens, UniProt Q13547); assay: as above; format: biochemical
# T1 construct: purchased from BPS Bioscience
# T1 sequence (Q13547 whole entry): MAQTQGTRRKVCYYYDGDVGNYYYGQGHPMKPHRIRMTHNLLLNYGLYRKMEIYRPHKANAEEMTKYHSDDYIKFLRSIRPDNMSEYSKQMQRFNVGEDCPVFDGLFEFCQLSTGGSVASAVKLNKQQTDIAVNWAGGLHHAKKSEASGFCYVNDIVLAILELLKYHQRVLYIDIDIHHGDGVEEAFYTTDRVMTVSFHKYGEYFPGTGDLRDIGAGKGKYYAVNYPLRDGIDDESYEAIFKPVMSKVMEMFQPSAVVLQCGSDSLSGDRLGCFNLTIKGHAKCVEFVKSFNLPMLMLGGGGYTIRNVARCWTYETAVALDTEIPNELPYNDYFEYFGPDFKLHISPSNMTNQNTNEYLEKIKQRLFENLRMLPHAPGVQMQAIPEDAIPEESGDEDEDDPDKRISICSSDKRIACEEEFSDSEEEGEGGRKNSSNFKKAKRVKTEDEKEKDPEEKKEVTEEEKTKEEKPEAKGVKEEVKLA
# HDAC6 = biological target: T2, HDAC6 (Homo sapiens, UniProt Q9UBN7); assay: biochemical; design: in vitro inhibition of purified HDAC isozymes, dose response
# T2 sequence (Q9UBN7 1-1215): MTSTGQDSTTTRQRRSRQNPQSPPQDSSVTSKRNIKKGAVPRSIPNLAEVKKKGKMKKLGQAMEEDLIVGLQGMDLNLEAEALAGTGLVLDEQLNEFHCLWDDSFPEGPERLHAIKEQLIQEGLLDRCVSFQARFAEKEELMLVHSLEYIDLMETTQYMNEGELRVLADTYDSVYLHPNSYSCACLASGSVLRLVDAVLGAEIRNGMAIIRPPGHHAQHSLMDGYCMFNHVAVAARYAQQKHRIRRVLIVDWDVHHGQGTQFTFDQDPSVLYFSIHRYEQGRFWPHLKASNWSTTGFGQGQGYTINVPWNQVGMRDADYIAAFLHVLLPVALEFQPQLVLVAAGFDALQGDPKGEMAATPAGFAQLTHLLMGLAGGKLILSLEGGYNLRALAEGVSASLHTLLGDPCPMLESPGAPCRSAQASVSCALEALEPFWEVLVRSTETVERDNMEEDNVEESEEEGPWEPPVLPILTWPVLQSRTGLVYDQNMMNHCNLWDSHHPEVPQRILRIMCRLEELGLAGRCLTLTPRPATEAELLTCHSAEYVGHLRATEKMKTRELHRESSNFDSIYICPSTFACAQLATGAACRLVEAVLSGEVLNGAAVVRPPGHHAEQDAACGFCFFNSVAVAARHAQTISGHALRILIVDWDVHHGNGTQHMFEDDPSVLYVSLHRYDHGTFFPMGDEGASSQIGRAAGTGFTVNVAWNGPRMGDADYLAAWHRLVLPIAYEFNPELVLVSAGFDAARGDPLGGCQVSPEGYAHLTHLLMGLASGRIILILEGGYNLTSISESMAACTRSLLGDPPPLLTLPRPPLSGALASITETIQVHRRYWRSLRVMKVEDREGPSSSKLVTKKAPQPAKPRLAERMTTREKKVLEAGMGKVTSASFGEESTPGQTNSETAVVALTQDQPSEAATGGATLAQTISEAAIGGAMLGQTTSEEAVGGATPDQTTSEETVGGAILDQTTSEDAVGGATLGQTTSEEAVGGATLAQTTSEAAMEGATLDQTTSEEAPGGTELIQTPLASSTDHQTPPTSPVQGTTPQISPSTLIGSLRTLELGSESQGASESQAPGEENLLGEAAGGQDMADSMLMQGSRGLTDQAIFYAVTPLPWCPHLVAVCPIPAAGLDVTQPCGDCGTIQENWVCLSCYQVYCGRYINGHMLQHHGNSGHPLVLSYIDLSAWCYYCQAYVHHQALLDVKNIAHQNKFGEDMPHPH
# Protocol: (§1) To confirm the ability of NKL54, MC2984 and MC2985 to act as epigenetic drugs, we examined the levels of histone H3 lysine 9 acetylation (H3K9ac) by immunoblot. SAHA triggered an increase in H3K9 acetylation within 15 min of treatment (Figure 1G). […] The increase in H3K9ac in response to MC2985 treatment was very small, almost undetectable. […] Overall, the modulation of H3K9ac and of H3K27ac levels in response to the different compounds confirms the inhibitory potency observed with the KDAC assay in vivo. Finally, we compared the in vitro inhibitory activity of SAHA and of PAOA derivatives against different purified HDACs (NKL54 was chosen as an example). The inhibitory activity of NKL54 was specific to HDAC1/2/3 (Figure 1H). […] The Tanimoto coefficient is reported for all the compounds versus the reference BML-210. *Energy calculated on the re-docked ligand extracted from the 3MU6 complex available from PDB. **Tanimoto similarity index calculated with radius 2 circular Morgan fingerprints ([73]) in a python script ([74]) using the RDKit library ([75]). […] Cell death was scored after 48 h from treatments. […] Cell death was scored after 48 h from treatments. Data are from 3 independent experiments, + S.D. (F) Lys-deacetylase activity as measured from SK-UT-1 cells treated with increasing concentrations of the indicated compounds [1, 5, 10 μM]. […]
# HDAC8 = biological target: T3, HDAC8 (Homo sapiens, UniProt Q9BY41); assay: biochemical; design: in vitro inhibition of purified HDAC isozymes, dose response
# T3 sequence (Q9BY41 1-377): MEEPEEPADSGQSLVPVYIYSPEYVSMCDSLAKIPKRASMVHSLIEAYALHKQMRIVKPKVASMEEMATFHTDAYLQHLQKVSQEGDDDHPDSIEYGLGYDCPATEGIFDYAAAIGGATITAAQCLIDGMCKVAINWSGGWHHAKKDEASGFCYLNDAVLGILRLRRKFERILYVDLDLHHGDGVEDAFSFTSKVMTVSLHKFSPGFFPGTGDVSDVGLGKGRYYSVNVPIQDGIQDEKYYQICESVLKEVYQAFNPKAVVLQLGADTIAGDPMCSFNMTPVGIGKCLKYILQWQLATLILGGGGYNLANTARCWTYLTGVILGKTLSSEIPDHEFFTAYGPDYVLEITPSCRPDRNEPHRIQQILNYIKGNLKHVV
# Protocol: as §1
# HDAC3 = biological target: T4, HDAC3 (Homo sapiens, UniProt O15379); assay: fluorogenic deacetylase assay, trypsin-coupled AMC release; format: biochemical
# T4 construct: purchased from BPS Bioscience; with Nuclear receptor corepressor 2
# T4 sequence (O15379 whole entry): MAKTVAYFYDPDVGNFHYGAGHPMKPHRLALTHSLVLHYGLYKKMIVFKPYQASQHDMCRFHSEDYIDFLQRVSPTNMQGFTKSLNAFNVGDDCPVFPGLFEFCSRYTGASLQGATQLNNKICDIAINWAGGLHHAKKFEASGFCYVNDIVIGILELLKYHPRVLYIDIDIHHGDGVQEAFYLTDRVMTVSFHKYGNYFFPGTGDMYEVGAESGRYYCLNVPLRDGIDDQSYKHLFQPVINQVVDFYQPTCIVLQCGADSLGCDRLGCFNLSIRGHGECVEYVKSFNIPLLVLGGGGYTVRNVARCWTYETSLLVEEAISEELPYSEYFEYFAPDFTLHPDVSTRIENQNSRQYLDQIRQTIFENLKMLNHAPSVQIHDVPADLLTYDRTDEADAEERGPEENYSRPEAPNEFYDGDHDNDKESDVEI
# HDAC2 = biological target: T5, HDAC2 (Homo sapiens, UniProt Q92769); assay: as above; format: biochemical
# T5 construct: purchased from BPS Bioscience
# T5 sequence (Q92769 whole entry): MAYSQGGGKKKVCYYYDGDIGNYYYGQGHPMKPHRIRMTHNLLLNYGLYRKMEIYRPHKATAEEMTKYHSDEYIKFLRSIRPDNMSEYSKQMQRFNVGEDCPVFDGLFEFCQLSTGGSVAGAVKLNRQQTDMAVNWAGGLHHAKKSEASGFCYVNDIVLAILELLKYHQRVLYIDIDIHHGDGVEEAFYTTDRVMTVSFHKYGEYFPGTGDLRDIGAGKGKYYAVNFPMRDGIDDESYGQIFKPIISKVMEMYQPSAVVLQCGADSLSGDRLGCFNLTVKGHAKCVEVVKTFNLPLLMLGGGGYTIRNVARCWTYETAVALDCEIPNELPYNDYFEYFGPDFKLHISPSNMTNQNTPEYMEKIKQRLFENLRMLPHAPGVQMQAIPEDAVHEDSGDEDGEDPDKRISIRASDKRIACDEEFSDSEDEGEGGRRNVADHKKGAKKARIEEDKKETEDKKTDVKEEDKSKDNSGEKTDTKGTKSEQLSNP
# HDAC4, sequence (P56524 648-1057 limits assumed): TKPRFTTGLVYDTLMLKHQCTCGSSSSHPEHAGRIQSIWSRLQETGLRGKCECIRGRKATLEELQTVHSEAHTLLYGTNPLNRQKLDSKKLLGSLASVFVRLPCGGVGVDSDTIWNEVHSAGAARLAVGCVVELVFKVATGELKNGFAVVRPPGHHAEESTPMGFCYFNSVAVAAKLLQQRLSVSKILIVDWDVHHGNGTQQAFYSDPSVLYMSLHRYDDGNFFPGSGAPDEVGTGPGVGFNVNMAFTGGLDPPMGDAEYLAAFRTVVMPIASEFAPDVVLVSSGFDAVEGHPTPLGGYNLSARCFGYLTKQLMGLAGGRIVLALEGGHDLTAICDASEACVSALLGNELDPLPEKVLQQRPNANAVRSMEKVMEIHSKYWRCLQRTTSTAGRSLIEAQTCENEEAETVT
structure (smiles),measurement,setting,value
"Nc1ccccc1NC(=O)CCCCCC(=O)Nc1cccc(C(F)(F)F)c1 [NKL54, N-(2-aminophenyl)-N'-[3-(trifluoromethyl)phenyl]heptanediamide]",IC50,HDAC4,35000 nM
same,IC50,HDAC1,84 ± 4 nM
same,IC50,HDAC6,> 50000 nM
same,IC50,HDAC8,> 50000 nM
same,IC50,HDAC3,47 ± 2 nM
same,IC50,HDAC2,176 ± 5 nM
